Reference: patent US7943795B2, “Vitamin D receptor modulators” (Eli Lilly and Company, priority 2004, dated 2011)

Tests used:
RXR-VDR heterodimer = target: T1, RXR-VDR heterodimer (Homo sapiens, UniProt P11473); assay: RXR-VDR heterodimerization (SaOS-2 cells) test; assay type: cell-based; settings: Gal-4-RXR-DEF / VP16-VDR-LBD, luciferase reporter
T1 construct: add the Reporter gene pFR-LUC; and add the Gal-4-RXR-DEF and VP16-VDR-LBD; expressed in transfected cells; host or cells: SaOS-2 cells
T1 sequence (P11473 127-423 limits assumed): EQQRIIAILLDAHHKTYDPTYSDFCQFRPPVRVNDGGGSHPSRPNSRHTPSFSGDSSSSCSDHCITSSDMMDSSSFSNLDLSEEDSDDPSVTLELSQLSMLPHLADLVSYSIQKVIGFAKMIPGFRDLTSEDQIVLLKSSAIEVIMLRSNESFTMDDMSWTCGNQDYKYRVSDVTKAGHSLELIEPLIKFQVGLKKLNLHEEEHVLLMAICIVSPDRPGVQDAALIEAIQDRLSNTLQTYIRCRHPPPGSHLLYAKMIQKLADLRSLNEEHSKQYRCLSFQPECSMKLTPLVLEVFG
T1 sequence (P19793 201-462 partner limits assumed): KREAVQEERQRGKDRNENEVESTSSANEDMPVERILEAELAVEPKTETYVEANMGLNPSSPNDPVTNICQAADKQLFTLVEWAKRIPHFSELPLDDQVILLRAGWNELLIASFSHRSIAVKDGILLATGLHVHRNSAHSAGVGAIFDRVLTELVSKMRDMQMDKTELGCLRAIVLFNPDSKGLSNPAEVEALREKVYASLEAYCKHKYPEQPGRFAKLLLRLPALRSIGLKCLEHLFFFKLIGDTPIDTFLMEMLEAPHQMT
Procedure: 2. The RXR-VDR heterodimerization (SaOS-2 cells) test is described in the “Assay” section of the Description, infra.
1. The RXR-VDR Heterodimer Assay:
This assay provides the VDR activity of a test compound. It is desirable to have low EC50 values for a compound in this assay. […] Desired assay results are EC50 values less than or equal to 600 nM. Preferred assay results are less than 250 nM, and most preferably less than 150 nM.
(1) Materials and Method for RXR-VDR Heterodimerization Assay Transfection
• Method: Reagents: FuGENE 6 Transfection Reagent (Roche Cat #1 814 443); Growth Media: D-MEM High Glucose (Gibco BRL Cat #11054-020), 10% heat inactivated FBS, (Gibco BRL Cat#10092-147) 1% antibiotic-antimycotic (Ab-Am); (Gibco BRL Cat #15240-062). • Cells: Grow SaOS-2 cells in T-150 cm^2 culture flasks in growth media keeping the density at 5-6×10^5 cells/ml. Passage cells 1:3 twice a week. Add Trypsin EDTA (Gibco BRL Cat #25300-020) and incubate. Resuspend cells in plating media and transfer into growth media. • Wash Media: HBSS Low Glucose Without Phenol Red (Gibco BRL Cat #14175-095), 1% Ab-Am. Plating Media: D-MEM Low Glucose Without Phenol Red (Gibco BRL Cat #11054-020), 1% Ab-Am; D-MEM; 10% Stripped FBS (Hyclone Cat#SH30068.03 Lot #AHM9371); • Transfection/Treatment Media: D-MEM Low Glucose Without Phenol Red only; T-150 cm^2 culture flask: Use Corning Coastar T-150 cm^2 culture flask (Cat #430825) to grow the cells. • Luciferase Assay Reagent: Use Steady-Glo Luciferase Reagent from Promega (Cat #E2550) Consists of: E2533 Assay Substrate, lyophilized product and E2543 Assay Buffer. Thaw at room temperature and store. • Cell Harvesting/Count: Aspirate media from culture flask, rinse cells with HBSS and aspirate. Add trypsin and incubate. When cells appear detached, resuspend cells in growth media. Transfer into a new flask with fresh growth media for passaging the cells. Plate 96 well plates and two extra plates. Mix the cell suspension using pipette. To count the cells using a Hematocytometer. • Plate seeding: Use plating media 10% Stripped FBS in D-MEM Low Glucose, without Phenol Red, 1% Ab-Am. Plate 14 plates @ 165 μl/well. In sterile flask add cell suspension to plating media and mix. Add cells/well. Place the cells in the incubator. Cells should be about 75% confluent prior to transfection. DAY 2: Transfection: Step 1, DNA and Media: Add plain DMEM media to tubes for mixing the DNA; add the Reporter gene pFR-LUC; and add the Gal-4-RXR-DEF and VP16-VDR-LBD. Step 2, FuGENE and Media: Prepare plain DMEM media in a tubes for mixing FuGENE, add FuGENE 6 Transfection Reagent, and incubate. Step 3, FuGENE, DNA and Media Complex: Add FuGENE Media complex from step 2 to DNA Media complex from step 1 and incubate. Step 4, FuGENE, DNA and Media Complex to 96 well plate: Add FuGENE-DNA-Media complex from step 3 to each plate. Incubate. • Day 3: Dosing: Treatment preparation. Allow for transfection time. Make a stock solution of the compounds in DMSO and vortex until all the compounds have been dissolved. Further dilute in D-MEM (Low Glucose—without Phenol Red) Add compounds in quadruplicate to give desired final volume then incubate. • Day 4: Luciferase Assay: Read the plates after drug treatment. Remove part of media from all the wells and leave remainder. Add Steady-Glo Luciferase Reagent mixture/wells and incubate. Count each well using a Luminescence counter, Top Count NXT by Packard preferably set a delay between plates to reduce the background.

VDR = target: T2, VDR (Homo sapiens, UniProt P11473); assay: VDR CTF (Caco-2 cells) co-transfection assay; assay type: cell-based; settings: pGal4-VDR-LBD, luciferase reporter
T2 construct: the receptor expression vector pGal4-VDR-LBD (10 ng); expressed in transfected cells; host or cells: Caco-2 cells
T2 sequence (P11473 127-423 limits assumed): T1 sequence (P11473 127-423 limits assumed)
Procedure: 3. The VDR CTF (Caco-2 cells) test is described in the “Assay” section of the Description, infra.
The Caco-2 cell assay is an indicator for the undesirable condition of hypercalcemia. This co-transfection assay is a surrogate assay for in vivo calcemic activity of VDR ligands. It is desirable to have high EC50 values for a test compound in this assay. The higher the EC50 values for a compound the less calcemic it will be in vivo. Desired assay results are EC50 greater than or equal to 300 nM. Preferred assay results are greater than 1000 nM.
Caco-2 cells, grown in phenol red free, DMEM (Invitrogen, Carlsbad, Calif.) containing 10% charcoal-stripped FBS (Hyclone, Logan, Utah), are transfected with Fugene 6 reagent (Roche Diagnostics, Indianapolis, Ind.). Cells (5000/well) are plated 18 h before transfection in a 96 well plate. The cells are transfected with Gal4-responsive reporter pFRLuc (150 ng, Stratagene, La Jolla Calif.) and the receptor expression vector pGal4-VDR-LBD (10 ng), along with Fugene 6 reagent (0.2 μl/well). The DNA-Fugene complex is formed by incubating the mixture for 30 m at room temperature. The cells are transfected in triplicate for 5 h, and treated with various concentrations of VDR ligands (from 0.01 nM to […] concentration range) 18 h post-transfection. The luciferase activity is quantified using Steady-Glo reagent kit (Promega, Madison, Wis.) as per manufacturer's specifications.

SMILES | EC50 (RXR-VDR heterodimer) | EC50 (VDR)
CCC(CC)(c1ccc(OCC(O)C(C)(C)C)c(C)c1)c1ccc2cc(C(=O)O)ccc2c1 (single isomer, unassigned) [Ex. 2A, 6-{1-Ethyl-1-[4-(2-hydroxy-3,3-dimethyl-butoxy)-3-methyl-phenyl]-propyl}-naphthalene-2-carboxylic acid] | 30.2 nM | 466 nM
CCC(CC)(c1ccc(OCC(=O)C(C)(C)C)c(C)c1)c1ccc2cc(C(=O)O)ccc2c1 [Ex. 1, 6-{1-[4-(3,3-dimethyl-2-oxobutoxy)-3-methylphenyl]-1-ethylpropyl}naphthalene-2-carboxylic acid] | 40 nM | 194 nM
CCC(CC)(c1ccc(OCC(=O)C(C)(C)C)c(C)c1)c1ccc2cc(C(=O)NCC(=O)O)ccc2c1 [Ex. 3, [(6-{1-[4-(3,3-Dimethyl-2-oxo-butoxy)-3-methylphenyl]-1-ethylpropyl}naphthalene-2-carbonyl)amino]acetic acid] | 0.4 nM | 35 nM
CCC(CC)(c1ccc(OCC(=O)C(C)(C)C)c(C)c1)c1ccc2cc(C(=O)N(C)C)ccc2c1 [Ex. 4, 6-{1-[4-(3,3-dimethyl-2-oxobutoxy)-3-methylphenyl]-1-ethylpropyl}naphthalene-2-carboxylic acid dimethylamide] | 105 nM | 550 nM
CCC(CC)(c1ccc(OCC(=O)C(C)(C)C)c(C)c1)c1ccc2cc(C(=O)N(C)CC(=O)O)ccc2c1 [Ex. 5, [(6-{1-[4-(3,3-Dimethyl-2-oxobutoxy)-3-methylphenyl]-1-ethylpropyl}naphthalene-2-carbonyl)methylamino]acetic acid] | 1 nM | 162 nM
